Legend:
Test in all cases: relative viability (nuclei count vs DMSO), 5 days (fraction); higher = more cells survive
[1] = compound: CCN1C(=O)C2=CC(=C(N=C2N(C1=O)C3CC3)N)C(=O)N + CC1(C)CCC(c2ccc(Cl)cc2)=C(CN2CCN(c3ccc(C(=O)NS(=O)(=O)c4ccc(N[C@H](CCN5CCOCC5)CSc5ccccc5)c(S(=O)(=O)C(F)(F)F)c4)cc3)CC2)C1 [Navitoclax] (partner 0.5 µM)
Outline: (§1)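 Dosing by pin tool came one day after lung cancer cell lines were seeded in 1536-well plates, using either one drug or a fixed anchor-drug dose plus five library-drug doses (not always all listed) in √10 steps. After 5 days, nuclei were counted on 4× images. Relative viability is treated-well nuclei count divided by vehicle-well nuclei count, and values are medians of duplicate plates.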

[2] = compound: CCN1C(=O)C2=CC(=C(N=C2N(C1=O)C3CC3)N)C(=O)N + COc1cc2c(Oc3ccc(NC(=O)C4(C(=O)Nc5ccc(F)cc5)CC4)cc3F)ccnc2cc1OCCCN1CCOCC1 [Foretinib] (partner 0.25 µM)
Outline: as §1

[3] = compound: CCN1C(=O)C2=CC(=C(N=C2N(C1=O)C3CC3)N)C(=O)N + COc1cccc2cc(-c3nc([C@H]4CC[C@H](C(=O)O)CC4)n4ncnc(N)c34)[nH]c12 [OSI-027] (partner 0.5 µM)
Outline: as §1

[4] = compound: CCN1C(=O)C2=CC(=C(N=C2N(C1=O)C3CC3)N)C(=O)N + Cc1cc(Nc2cc(N3CCN(C)CC3)nc(Sc3ccc(NC(=O)C4CC4)cc3)n2)n[nH]1 [Tozasertib] (partner 0.1 µM)
Outline: as §1

[5] = compound: CCN1C(=O)C2=CC(=C(N=C2N(C1=O)C3CC3)N)C(=O)N + Nc1nc2[nH]cc(CCc3ccc(C(=O)N[C@@H](CCC(=O)O)C(=O)O)cc3)c2c(=O)[nH]1 [Pemetrexed] (partner 0.2 µM)
Outline: as §1

Row | Cell Line | relative viability ([1]; first compound 0.253 µM) | relative viability ([1]; first compound 0.8 µM) | relative viability ([1]; first compound 2.53 µM) | relative viability ([1]; first compound 8 µM) | relative viability ([2]; first compound 0.8 µM) | relative viability ([2]; first compound 2.53 µM) | relative viability ([2]; first compound 8 µM) | relative viability ([3]; first compound 0.8 µM) | relative viability ([3]; first compound 2.53 µM) | relative viability ([3]; first compound 8 µM) | relative viability ([4]; first compound 0.8 µM) | relative viability ([4]; first compound 2.53 µM) | relative viability ([4]; first compound 8 µM) | relative viability ([5]; first compound 0.253 µM) | relative viability ([5]; first compound 0.8 µM) | relative viability ([5]; first compound 2.53 µM) | relative viability ([5]; first compound 8 µM) | relative viability ([2]; first compound 0.253 µM) | relative viability ([3]; first compound 0.253 µM) | relative viability ([4]; first compound 0.253 µM)
1 | HCC-366 | 0.985 | 0.991 | 1.1 | 1.05 | 0.91 | 0.951 | 0.919 | 0.938 | 0.877 | 0.743 | 0.0821 | 0.0697 | 0.0668 | 0.167 | 0.17 | 0.155 | 0.163 |  |  | 
2 | HCC-827 | 1 | 1.01 | 0.98 | 0.954 | 0.993 | 0.99 | 1.06 | 0.771 | 0.793 | 0.794 | 0.387 | 0.457 | 0.445 | 0.259 | 0.268 | 0.224 | 0.264 | 0.982 | 0.778 | 0.395
3 | HOP-62 | 1.08 | 1.11 | 0.969 | 0.924 | 1.11 | 1.03 | 1.03 | 0.919 | 0.795 | 0.883 | 0.353 | 0.382 | 0.371 | 0.278 | 0.353 | 0.303 | 0.345 | 1 | 0.96 | 0.367
4 | IA-LM | 0.815 | 0.583 | 0.768 | 0.791 | 1.03 | 0.963 | 1.44 |  |  |  |  |  |  |  |  |  |  | 1.21 |  | 
5 | LC-2-ad | 0.416 | 0.45 | 0.462 | 0.518 | 0.855 | 0.986 | 0.94 | 0.808 | 0.759 | 0.829 | 0.507 | 0.484 | 0.452 | 0.288 | 0.298 | 0.273 | 0.278 | 0.926 | 0.693 | 0.399
6 | LCLC-97TM1 | 0.431 |  |  | 0.53 | 0.866 | 0.86 | 1.1 | 0.371 | 0.441 | 0.56 | 0.166 | 0.204 | 0.25 | 0.227 | 0.177 | 0.173 | 0.172 | 0.869 | 0.466 | 0.218
7 | LCLC-103H |  |  |  |  | 0.721 | 0.728 | 0.922 | 0.475 | 0.49 | 0.399 | 0.487 | 0.472 | 0.48 | 0.46 | 0.461 | 0.46 | 0.453 | 0.852 | 0.411 | 0.468
8 | LK-2 | 0.934 | 0.937 | 0.976 | 1.06 | 1.11 | 1.05 | 1.6 | 0.196 | 0.181 | 0.2 | 0.173 | 0.149 | 0.161 | 0.3 | 0.286 | 0.303 | 0.301 | 1.03 | 0.19 | 0.184
9 | LOU-NH91 | 0.656 | 0.68 | 0.701 | 0.689 | 0.855 | 0.978 | 0.916 | 0.66 | 0.766 | 0.692 | 0.649 | 0.635 | 0.683 | 0.369 | 0.377 | 0.383 | 0.379 | 0.847 | 0.637 | 0.603
10 | LU99A | 0.778 | 0.741 | 0.747 | 0.875 | 0.8 | 0.789 | 0.857 | 0.294 | 0.284 | 0.288 | 0.277 | 0.252 | 0.238 | 0.174 | 0.187 | 0.168 | 0.184 | 0.732 | 0.34 | 0.307
11 | LXF-289 | 0.93 | 0.951 | 1.01 | 0.95 | 1 | 0.966 | 1 | 0.864 | 0.815 | 0.793 | 0.26 | 0.206 | 0.201 | 0.917 | 0.889 | 0.895 | 0.993 | 0.995 | 0.827 | 0.127
12 | NCI-H358 |  |  |  |  | 0.762 | 0.771 | 0.676 | 0.818 | 0.779 | 0.814 | 0.114 | 0.0945 | 0.119 | 0.172 | 0.181 | 0.188 | 0.164 | 0.704 | 0.85 | 0.0962
13 | NCI-H522 |  |  |  |  |  |  |  | 0.623 | 0.647 | 0.722 | 0.478 | 0.496 | 0.489 | 1.1 | 0.976 | 0.792 | 0.926 |  | 0.715 | 0.593
14 | NCI-H650 |  |  |  |  | 1.04 | 0.954 | 0.944 | 0.46 | 0.516 | 0.457 | 0.759 | 0.67 | 0.702 | 0.962 | 0.782 | 0.954 | 0.978 | 0.969 | 0.527 | 0.704
15 | NCI-H661 |  |  |  |  | 1.08 | 0.939 | 1.01 | 0.742 | 0.681 | 0.677 | 0.356 | 0.354 | 0.335 | 0.918 | 0.905 | 0.935 | 0.886 | 0.989 | 0.773 | 0.339
16 | NCI-H727 | 0.463 | 0.51 | 0.484 | 0.596 | 0.889 | 0.888 | 1.23 | 0.528 | 0.654 | 0.723 | 0.71 | 0.608 | 0.603 |  |  |  |  | 1.06 | 0.59 | 0.534
17 | NCI-H1792 | 0.648 | 0.533 | 0.834 | 0.564 |  |  |  | 0.696 | 0.733 | 0.651 |  |  |  | 0.733 | 0.77 | 0.911 | 0.909 |  | 0.69 | 
18 | SW 900 |  |  |  |  | 0.996 | 0.837 | 1.03 | 0.531 | 0.475 | 0.731 | 0.507 | 0.457 | 0.446 | 0.462 | 0.517 | 0.52 | 0.473 | 1.03 | 0.568 | 0.553

Source: the supplement of paper PMC10307832
